We go through two compounds from US20170367338A1, “COMPOSITIONS AND METHODS FOR IMPROVING AGRONOMIC CHARACTERISTICS OF PLANTS” (MONSANTO TECHNOLOGY LLC, priority 2014, published 2017).

Each structure is given as a SMILES string. Like-named read-outs stand apart in the source and are kept apart here. Marks after values point to notes of the source that are not given here.

Data set [1] relates to soybean cyst nematode (SCN). The data set can be described thus: SCN greenhouse sand assay on soybean plants. The data set is classed as in vivo. Particulars: Glycine max, 672 h, read-out: percent control (cyst number reduction) relative to the control blank treatment.
In the next data set the test system is root knot nematode (RKN). The data set can be described thus: RKN greenhouse soil assay on cucumber plants. Particulars: for percent control (galling reduction) relative to the control blank treatment: 0 day treatment. The data set is classed as in vivo. An excerpt: Cucumber seeds are planted in a sandy soil mixture in two inch square plastic pots. When the cotyledons are fully opened and just as the first leaf begins to emerge, usually 7 days after planting, chemistry for the 7 day treatment is applied. One week later the chemistry for the 0 day treatment is applied. Separate plants are used for each application. The plants are generally in the 1-2 leaf stage now. At least four hours after the chemistry application the pots are inoculated with root knot nematode (RKN) eggs. Plants are rated for galling 14 days after the egg inoculation.
One milligram of chemistry per four pots is equal to one kilogram per hectare of chemical. A standard test uses four replications. For rates above 2 kg/ha, the desired amount of chemical is weighed into a 30 ml vial (example: 8 kg/ha rate =8 mg chemical in 30 ml vial). The chemical is dissolved in 2 ml of appropriate solvent, generally acetone. For rates below 2 kg/ha, 2 milligrams of chemistry is weighed into the vial and dissolved in 2 ml of the solvent. The appropriate amount of chemical concentrate is then pipetted into a separate 30 ml vial and solvent is added to bring the volume to 2 ml (example 0.5 kg/ha=0.5 ml of concentrate+1.5 ml solvent). Each dissolved concentrate is then brought to a total of 20 milliliters using 0.05% Triton X 100 surfactant solution.
Pots to be treated are moist but not saturated. To each of four pots, five milliliters of the appropriate chemical solution is pipetted to the media surface making sure to avoid contact with the base of the plant. Immediately following chemical application, using a mist nozzle, the pot surface is wetted sufficiently to saturate the pot watering in the chemistry. The chemical application is done in the morning.
Nematode eggs, either SCN or RKN, are added to distilled water to create a concentration of 1000 vermiform eggs […]. At least four hours after chemical treatment the eggs are applied to the treated pots plus non-treated check plants. A small hole about 1 cm deep is punched into the pot surface. One milliliter of the nematode egg slurry is pipetted into the hole. Immediately afterwards the hole is gently covered. Watering of the test plants is then restricted to only water as needed to prevent wilt for a period of 24 hours. After the 24 hour restricted watering, normal sub-irrigation watering is done for the duration of the test.

A further data set relates to root knot nematode. The data set can be described thus: Pre-plant incorporated (PPI) greenhouse test of root knot nematode on cucumber plants. It is filed as in vivo. To be noted: for pest or weed control at 4000 g/ha: 4 kg/ha, read-out: percent control (galling reduction), 4 kg/ha rate; for pest or weed control at 8000 g/ha: 8 ka/ha, read-out: percent control (galling reduction), 8 ka/ha rate. In a few lines: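 Compound in acetone, diluted in 0.05% X100, was mixed into a field soil/sand mix at doses simulating 8, 4 and 2 kg/ha incorporated 15 cm deep, with 4 pots per treatment. Cucumber was seeded and root knot nematode eggs were applied 7, 14 or 21 days after soil treatment. Harvest followed 14 days after inoculation.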

In another data set the test system is caspase-3. The data set can be described thus: Caspase-3 activity in H4IIE cells (DEVD-AMC). It is filed as cell-based. To be noted: rat hepatoma derived H4IIE cells, concentrations up to 300 μM. On the procedure:
To evaluate whether the compound classes of this invention are able to induce apoptosis, caspase-3 activity was determined after compound exposure in rat hepatoma derived H4IIE cells using a caspase substrate (DEVD, Asp-Glu-Val-Asp) labeled with a fluorescent molecule, 7-Amino-4-methylcoumarin (AMC). Caspase 3 cleaves the tetrapeptide between D and AMC, thus releasing the fluorogenic […] AMC. Following the test article exposure to cells in 96-well plates, medium was aspirated from plates and PBS added to each well. Plates were stored at −80° C. to lyse cells and store samples until further analysis. On the day of analysis, plates were removed from freezer and thawed. Caspase buffer with fluorescent substrate was added to each well and incubated at room temperature for one hour. AMC release was measured in a spectrofluorometer at an excitation wavelength of 360 nm and an emission wavelength of 460 nm. Values are expressed as relative fluorescent units (RFU).

Setting [2] is: 336 h, fourteen day pre-plant incorporated, test a.
[3] abbreviates: fourteen day pre-plant incorporated, test a.
The mark [4] stands for this setting: 168 h, seven day pre-plant incorporated.
Where [5] appears, read: 504 h, twenty one day pre-plant incorporated.

For the compound `Cc1cc(Cl)ccc1-c1noc(-c2ccco2)n1` [compound 5823], the pest or weed control at 100 g/ha in data set [1] (0.1 kg/ha, test d) was 38%. Moreover, the pest or weed control at 250 g/ha in data set [1] (0.25 kg/ha, test d) turned out to be 69%. Moreover, the “percent control (galling reduction) relative to the control blank treatment” value with root knot nematode (RKN) (0.1 kg/ha, test a) was determined as 85%; with root knot nematode (RKN) (0.25 kg/ha, test c), 98%. Besides, the pest or weed control at 4000 g/ha came to 98% in the data set on root knot nematode (setting [2]) and 94% with root knot nematode (336 h, fourteen day pre-plant incorporated, test b). Also, the “percent control (galling reduction), 2 kg/ha rate” value in the data set with root knot nematode (setting [3]) is given as 85^a percent. In addition, the pest or weed control at 8000 g/ha was found to be 100% in the data set on root knot nematode (setting [3]) and 100% in the data set on root knot nematode (fourteen day pre-plant incorporated, test b). The “induction of caspase-3” value in the data set with caspase-3 is “no induction of caspase-3”.

As to `c1ccc(-c2noc(-c3cccs3)n2)cc1` [compound 1822], in data set [1] (2 kg/ha, test a), the pest or weed control at 2000 g/ha was found to be 100%. Further, the “percent control (galling reduction) relative to the control blank treatment” value in the data set with root knot nematode (RKN) (0.05 kg/ha, test a) is on record as 7^a percent; in the data set on root knot nematode (RKN) (0.25 kg/ha, test a) it was 60%. For the same compound, in the data set with root knot nematode (RKN) (Acetone formulation (10% acetone in 0.05% Triton X 100), 1 mg/kg), the “percent control (galling reduction), Acetone 1 mg/kg” value turned out to be 94%. Moreover, the values for the pest or weed control at 4000 g/ha in the data set on root knot nematode (setting [4]), in the data set on root knot nematode (setting [2]) and in the data set with root knot nematode (setting [5]) were 99%, 97% and 82%, respectively. The pest or weed control at 8000 g/ha in the data set with root knot nematode (setting [4]) stood at 99%; in the data set with root knot nematode (setting [5]), 95%; in the data set on root knot nematode (setting [3]), 100%. Moreover, the “percent control (galling reduction), 2 kg/ha rate” value in the data set with root knot nematode (setting [3]) is listed as 67^a percent. The “induction of caspase-3” value in the data set on caspase-3 is recorded as “no induction of caspase-3”.
